Measurements published in patent US12552760B2, “Compounds for increasing the nicotinamide adenine dinucleotide in a subject and methods of use thereof” (The Board of Trustees of the University of Illinois, priority 2022, dated 2026).
pEC50: −log10 of the molar value.

Columns and labels:
[1] = tested on: APPSwe/PSEN1dE9 N2A cells; settings: 10 mM, 72 h; Long, A. N. et al. 2015; cited from earlier work
[2] = tested on: GMC101 worms; settings: 1 mM, 1-8 days; Sorrentino, V. et al. 2017; cited from earlier work
[3] = tested on: APPSwe/PSEN1dE9 mice; settings: 400 mg/kg/d (p.o.) 10 weeks; Sorrentino, V. et al. 2017; cited from earlier work
[4] = tested on: Tg2576/PGC-1α knockout mice; settings: 250 mg/kg/d (p.o) 3 months; Gong, B. et al. 2013; cited from earlier work
[5] = tested on: 3xTgAD, and 3xTgAD/Polβ^+/− mice; settings: 12 mM in drinking water p.o. 6 months; Hou, Y. et al. 2018; cited from earlier work
[6] = tested on: hSOD1^G93A mouse derived astrocytes and motor neurons; settings: NR or NMN, 5 mM, 24-72 h; Harlan, B. A. et al. 2019; cited from earlier work
[7] = tested on: Csb^m/m mice; settings: 500 mg/kg/d (i.p.) 1 week; Scheibye-Knudsen, M. et al. 2014; cited from earlier work
[8] = molecular target: T1, NAMPT (Homo sapiens, UniProt P43490); test: NAMPT coupled enzyme activity assay (HTS coupled three-enzyme assay); format: biochemical; settings: dose-response (FIG. 1B)
T1 construct: His6 (C); made in house
Description: NAMPT coupled enzyme activity assay. The NAMPT enzyme assay is based on conditions from Burgos and Schramm and adapted to include a cycling reaction to quantitate NAD^+ production colorimetrically^1. The assay follows the NAMPT-catalyzed production of NMN from substrates NAM and PRPP by coupling NMN formation to the NMNAT reaction, which produces NAD^+ from NMN and ATP. The NAD^+ is then cycled by alcohol dehydrogenase (ADH) and diaphorase to continuously produce WST-1 formazan, which can be detected at 450 nm. Assays are performed at 25° C. in clear 384-well plates, with a final assay volume of 30 μL, and contain the following: 50 mM HEPES, pH 7.5, 5 mM MgCl2, 50 mM NaCl, 0.01% Triton-X 100, 2.5 mM ATP, 40 μM PRPP, 1-500 μM NAM, 1.5 μL WST-1 (Roche Cell Proliferation Reagent), 1 U/mL ADH, 0.083 U/mL diaphorase, 1.5% ethanol, 1% DMSO, 30 nM NAMPT, and 7.4 nM purified human NMNAT1. N-terminal His6-NMNAT1 and C-terminal His6-NAMPT were overexpressed and purified by metal chelate affinity chromatography. Following assay assembly, well signals were measured continuously at 450 nm on a Tecan Infinite M200 plate reader for 1 h with intermittent shaking. Slopes of the linear portions of the reaction progress curves were recorded and corrected for background by subtracting the average slope of control wells containing NAMPT inhibitor FK866.
A high-throughput screen (HTS) of 22,000 compounds was performed to identify those that augment NAMPT enzymatic activity^38. Screening used a coupled three-enzyme assay to detect conversion of NAM to NAD^+, as previously described by our group^37. […] We also established assays in which to assess the ability of our compounds to mitigate neuronal oxidative stress.

[9] = tested on: THP-1 human monocytes; test: Measurement of cellular NAD^+ levels in THP-1 cell cultures (NAD/NADH-Glo); format: cell-based; settings: dose response study, 30 μM (FIG. 1A)
Protocol: Measurement of cellular NAD^+ levels in THP-1 cell cultures. Using FK-866 and NMN as negative and positive controls, respectively, we explored a number of cell lines to select a highly reproducible model system with good dynamic range. We optimized a commercial NAD-glo assay in the THP-1 human leukemic monocyte cell line in 96-well plates, measuring NAD^+ after incubation with test compounds for 24 hours. […] All cells were grown at 37° C., under 5% CO2 in a humidified incubator. Low passage THP-1 cells (37,500 cells/well) were seeded in 96-well plates and incubated at 37° C. and 5% CO2 for 1½ h prior to a 24 h treatment. All compounds were dissolved in DMSO, and final DMSO concentrations never exceeded 1%. The NAD^+ levels in the cells are measured using the NAD^+/NADH-Glo™ assay (Promega). The assays were performed in triplicate for each concentration and the IC50 values were determined from non-linear regression analysis of the dose-response curve generated in GraphPad Prism 9.

[10] = tested on: HT-22 mouse hippocampal cell line; test: TNFα-induced ROS in HT-22 cells (MitoSOX); format: cell-based; settings: screened against 1 μg/mL TNFα (FIG. 2A)
Protocol: Cell Culture and Drug Treatments. HT22 mouse hippocampal neuronal cells (a gift from the Salk Institute) were grown in Dulbecco's modified Eagle's medium (DMEM) containing 10% FBS and 1× Antibiotic-Antimycotic (ABAM). Cells were maintained in a humidified 5% CO2 atmosphere incubator at 37° C., and were passaged when 60-80% confluent (1-2 days) by removing media, rinsing with phosphate buffered saline (PBS), and enzymatically detaching with trypsin solution. New culture dishes were seeded with ¼ to ½ the cells from the previous dish.
All assays were performed using cells with passage number 12-50. The inner 60 wells of black-walled (Corning®3603/3604) 96-well plates were treated with poly D-lysine (30 μL/well) making sure to cover the entire well surface for 15-30 seconds and then washed thoroughly with sterile water (3×−200 μL/well). TNFα stock solutions (10 μg/mL, PBS (0.1% BSA)) were made, aliquoted, and stored at −80° C. Glutamate stock solutions were made fresh immediately before assay. All compound stock solutions (10 mM, DMSO) were made and stored at −20° C.
Cells were plated at a seeding density of 3,000-5,000 cells/well and allowed to incubate overnight. The next day (18-24 hours later) cells were pretreated with N-PAMs, carefully ensuring equivalent vehicle (DMSO/PBS) composition in each well. After 18-24 hours, stressors (glutamate or TNFα) were treated. Live cell count, ROS level, and total cell count were then assessed after another 18-24 hours.
ROS Detection. ROS levels were quantified using MitoSOX Red Mitochondrial Superoxide Indicator (Invitrogen). At treatment endpoint, the cell culture media was removed and replaced with phosphate buffered saline (PBS) containing 1 μM calcein-AM, 5 μM MitoSOX, and 10 μg/mL Hoechst dyes. Cells were incubated for 30-45 minutes and then dye-containing PBS was dumped and replaced with 100 μL/well fresh PBS. The plate was immediately analyzed in the Celigo Imaging Cytometer using the Live-Dead-Total protocol, where MitoSOX was used in place of propidium iodide. The cell counts and fluorescence intensities for living (calcein), MitoSOX-stained, and total (Hoechst) were acquired. MitoSOX average mean fluorescence intensity (“dead” average mean intensity) was used to quantify mitochondrial ROS. All readouts used were transformed into fold-change over vehicle treatment for visualization.
We set out to design assays representing the connection between OS and the multifaceted pathophysiology of aging and ND. We assessed multiple treatments in several cell lines to model OS induced by diverse factors such as neuroinflammatory signaling, neurotransmitter signaling, and direct oxidant species. Assay development highlighted the neuronal HT-22 mouse hippocampal cell line as most robust for these purpose s, and inflammatory cytokine TNFα as being a reliable and disease-relevant method for inducing ROS generation.

[11] = molecular target: T1, NAMPT; test: NP-A3-B2:NAMPT co-crystal structure (X-ray diffraction); settings: NP-A3-B2, NAM and NAMPT; 1.3-1.5 Å resolution
Protocol: X-ray diffraction crystallography. Crystals of NAMPT complexed with NAM and N-PAM were grown by hanging drop vapor diffusion at 16° C. Prior to crystallization, 11 mg/mL NAMPT protein was incubated with 10 mM NAM and 1 mM compound for 30 min on ice. Crystals of the complex were grown by mixing 1-2 μL of NAMPT complex with 2 μL of reservoir solution containing 0.1 M Tris-HCl, pH 8, 0.1 M KCl, and 24-28% PEG 2000 MME or 0.1 M Tris-HCl, pH 8.5, 0.2 M NaCl, 20% glycerol and 13-18% PEG 3350. Crystals grew overnight from the PEG 2000 MME conditions and were used to streak seed drops of NAMPT complex equilibrating against the PEG 3350 conditions.
Data collection and structure refinement. The glycerol present in the crystallization solution was sufficient to cryo-protect crystals, which were flash-cooled in liquid nitrogen. Data were collected on a MAR300 detector at 0.979 Å at the Life Sciences Collaborative Access Team beamline 21-ID-F at the Advanced Photon Source, Argonne National Laboratory. Data indexing, integration, and scaling were performed using XDS, and phases were determined by molecular replacement using Molrep and a NAMPT-NAM co-crystal structure (PDB entry: 2E5D) as search model. Rigid body refinement followed by iterative rounds of restrained refinement and model building were performed with Phenix and Coot.

T1 sequence (P43490 whole entry): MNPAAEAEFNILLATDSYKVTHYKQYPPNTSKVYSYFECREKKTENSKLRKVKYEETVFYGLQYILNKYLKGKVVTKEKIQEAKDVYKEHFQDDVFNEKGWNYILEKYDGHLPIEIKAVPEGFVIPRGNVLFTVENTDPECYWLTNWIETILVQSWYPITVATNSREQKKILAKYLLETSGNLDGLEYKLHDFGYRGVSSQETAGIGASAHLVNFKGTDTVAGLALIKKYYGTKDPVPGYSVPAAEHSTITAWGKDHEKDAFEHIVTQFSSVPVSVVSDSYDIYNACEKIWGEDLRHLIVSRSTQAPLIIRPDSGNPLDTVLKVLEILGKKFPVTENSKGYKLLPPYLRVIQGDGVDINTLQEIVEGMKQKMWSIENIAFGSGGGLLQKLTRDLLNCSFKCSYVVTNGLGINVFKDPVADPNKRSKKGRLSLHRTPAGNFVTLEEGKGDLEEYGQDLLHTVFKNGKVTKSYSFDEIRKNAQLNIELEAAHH

Structure (SMILES): NC(=O)c1ccc[n+]([C@@H]2O[C@H](COP(=O)([O-])OP(=O)(O)OC[C@H]3O[C@@H](n4cnc5c(N)ncnc54)[C@H](O)[C@@H]3O)[C@@H](O)[C@H]2O)c1 [NAD^+, Nicotinamide adenine dinucleotide]
- mitochondrial deficits [1]: Reversed

Structure (SMILES): NC(=O)c1ccc[n+]([C@@H]2O[C@H](CO)[C@@H](O)[C@H]2O)c1 [NR]
- health- and lifespan of worms [2]: Increased health-
- proteotoxicity and aggregation of Aβ [2]: Reduced
- Aβ aggregation [3]: Reduced Aβ
- impaired memory [3]: Enhanced
- mitochondrial function [3]: Improved
- NAD^+ levels and PGC-1α expression [4]: Increased NAD^+
- cognitive (novel object recognition) performance [4]: Improved
- synaptic plasticity [4]: Improved synaptic
- NAD^+/NADH ratio [5]: Increased
- learning, memory, motor function, and anxiety [5]: Improved
- neurogenesis [5]: Increased
- neuroinflammation [5]: Decreased
- p-Tau levels [5]: Decreased p-Tau
- synaptic plasticity [5]: Restored synaptic
- Nrf2 mediated Antioxidant Response Element activation [6]: Increased Nrf2
- cerebellar NAD^+ ATP, mitochondrial function [7]: Rescued
- gene profile associated with oxidative stress, DNA repair, mitochondrial function [7]: Normalized gene

Structure (SMILES): COc1ccc(CN(CCC2(C(C)C)CCOC(C)(C)C2)C(=O)c2ccco2)cc1 (stereo not drawn) [NP-A3-B2, N-[(4-Methoxyphenyl)methyl]-N-[2-[tetrahydro-2,2-dimethyl-4-(1-methylethyl)-2H-pyran-4-yl]ethyl]-2-furancarboxamide]
- pEC50 ([8]; NAMPT activation): 5.39
- Amax [8]: 1.85 fold
- NAD^+ fold over control [9]: 1.18 fold
- increase in NAD^+ over control [9]: 18%
- effect on ROS levels across tested concentrations [10]: little effect until 40 μM
- binding mode in co-crystal structure [11]: allosteric binding of the hit to the NAMPT rear channel
